Common to all, as to assay: growth of human tumour cells (NCI), 48 h
Experiment [1] deals with A498.
Experiment [2] has as its system A549.
Experiment [3] concerns ACHN.
Experiment [4] has as its system HL-60.
For experiment [5], the system named is IGROV-1.
Experiment [6] concerns NCI-H460.
Experiment [7] has as its system OVCAR-8.
In experiment [8] the test system is SF-268.
Experiment [9] concerns SK-OV-3.
Experiment [10] deals with SNB-19.
Experiment [11] concerns SR.
In experiment [12] the test system is U-251.
Experiment [13] relates to K562.
Experiment [14] concerns Malme-3M.
The subject of experiment [15] is NCI-H226.

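In this assay, cells in 96-well plates receive the compound at five concentrations for 48 hours. Endpoints are linearly interpolated between the surrounding concentrations. Abbreviation: GI50, concentration required for 50% inhibition of growth.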 Calls of active or inactive are those of the source. Rule as the data show it: active = GI50 up to about 1.1 µM and inactive = higher. A value given as a limit tells only on which side of the number the result lay.

As for `O=C(/C=C/c1ccco1)N1CCN(Cc2ccccc2)CC1`, the GI50 in experiment [1], in experiment [2], in [3], in [4], in experiment [5] and in experiment [6] was > 100 µM (inactive) in each case. Also, the GI50 in [7], in experiment [8], in experiment [9], in experiment [10], in experiment [11] and in experiment [12] was > 100 µM (inactive) in each case.
Regarding `CCOC(=O)C1COc2cc(-c3cc(=O)c4ccccc4o3)ccc2O1` (stereo unspecified), the GI50 in [2] is > 100 µM (inactive); in experiment [3], > 100 µM (inactive); in [5], 66.8 µM (inactive); in [13] it was > 100 µM (inactive); in [14], > 100 µM (inactive); in experiment [6] it was 33.8 µM (inactive). The GI50 was 24.7 µM (inactive) in [7]; > 100 µM (inactive) in [8]; > 100 µM (inactive) in [9]; > 100 µM (inactive) in experiment [10]; > 100 µM (inactive) in experiment [11]; > 100 µM (inactive) in experiment [12].
Regarding `Cc1cc(N(CCC#N)CCC#N)ccc1CC1N=C(c2ccccc2)OC1=O` (stereo unspecified), the GI50 in [1], in experiment [2], in [3], in experiment [4], in experiment [5] and in experiment [13] was > 100 µM (inactive) throughout. The GI50 in [14] was > 100 µM (inactive); in experiment [15], 64.1 µM (inactive); in experiment [6] it was > 100 µM (inactive); in experiment [7], > 100 µM (inactive); in experiment [8] it was > 100 µM (inactive); in experiment [9], > 100 µM (inactive). Besides, the GI50 in experiment [10] and in experiment [12] was > 100 µM (inactive) each time.
Turning to `CCCCCC(=O)OC[n+]1ccc2c(C)c3[nH]c4ccccc4c3c(C)c2c1`, the GI50 was 1.35 µM (inactive) in [1]; 0.586 µM (active) in [2]; 0.738 µM (active) in experiment [3]; 2.99 µM (inactive) in experiment [4]; 1.75 µM (inactive) in experiment [5]; 1.54 µM (inactive) in experiment [14]. The GI50 in [15] is 1.32 µM (inactive); in experiment [6], 0.142 µM (active); in experiment [7], 0.474 µM (active); in experiment [8], 0.796 µM (active); in [9], 1.92 µM (inactive); in [11], 0.281 µM (active). The GI50 in [12] was 0.656 µM (active).
In the case of `OC12c3ccccc3C3CCC4(OCCO4)C3C1c1ccccc12` (stereo unspecified), the GI50 is 52.1 µM (inactive) in [1]; > 100 µM (inactive) in [2]; > 100 µM (inactive) in experiment [3]; > 100 µM (inactive) in experiment [4]; 61.8 µM (inactive) in [5]; 49.8 µM (inactive) in experiment [13]. For the same molecule, the GI50 in [14], in experiment [15], in [6], in [7], in experiment [8] and in [9] was > 100 µM (inactive) each time. The GI50 in experiment [10] and in [12] was > 100 µM (inactive) throughout.
Take `CC(C)(Oc1ccc(C(=O)c2ccc(Cl)cc2)cc1Cl)C(=O)Nc1c(Cl)cccc1Cl`: the GI50 in experiment [1] was > 100 µM (inactive); in experiment [2], > 100 µM (inactive); in [4], 10.7 µM (inactive); in [5], > 100 µM (inactive); in experiment [13], 5.64 µM (inactive); in experiment [14], > 100 µM (inactive). In addition, the GI50 in experiment [6] was 5.77 µM (inactive); in experiment [7], > 100 µM (inactive); in experiment [8], > 100 µM (inactive); in experiment [9] it was > 100 µM (inactive); in experiment [10], > 100 µM (inactive); in experiment [11], 9.75 µM (inactive). Further, the GI50 in experiment [12] is > 100 µM (inactive).
With `CN(C)C(=O)Oc1c(-c2ccccc2)c(=O)n2c3ccccc3n3c(=O)n(C)c(=O)c1c23`, the GI50 in [1], in [2], in experiment [3], in experiment [5], in [14] and in experiment [6] was > 100 µM (inactive) in each case. Also, the GI50 in experiment [7], in experiment [8], in experiment [9], in experiment [10], in experiment [11] and in [12] was > 100 µM (inactive) throughout.
As for `CN(C)c1ccc(/C=C/c2ccc(/C=C/c3ccc(N(C)C)cc3)cc2)cc1`, the GI50 is > 100 µM (inactive) in experiment [1]; 95.9 µM (inactive) in experiment [2]; 57.8 µM (inactive) in experiment [3]; > 100 µM (inactive) in [4]; > 100 µM (inactive) in [5]; 75.5 µM (inactive) in [13]. Further, the GI50 was 13 µM (inactive) in experiment [14]; 81.8 µM (inactive) in experiment [15]; > 100 µM (inactive) in [6]; > 100 µM (inactive) in [7]; > 100 µM (inactive) in experiment [8]; > 100 µM (inactive) in [9]. Besides, the GI50 was 78.5 µM (inactive) in experiment [10] and > 100 µM (inactive) in experiment [12].
For `O=C1CCCCCCCCCCC(=O)N2CCOCCOCCN1Cc1cccc(n1)C2`, the GI50 is > 100 µM (inactive) in [1]; > 100 µM (inactive) in experiment [2]; > 100 µM (inactive) in [3]; > 100 µM (inactive) in experiment [5]; 81.1 µM (inactive) in experiment [13]; > 100 µM (inactive) in experiment [14]. The GI50 in experiment [15], in experiment [6], in [7], in experiment [8], in experiment [9] and in experiment [10] was > 100 µM (inactive) throughout. Besides, the GI50 in experiment [12] is > 100 µM (inactive).
With `C/C(=N\NC(=O)CC(=O)Nc1ccc(C)cc1)c1cc2ccccc2oc1=O`, the GI50 in experiment [2] is > 100 µM (inactive); in experiment [3] it was > 100 µM (inactive); in [4], > 100 µM (inactive); in experiment [5], > 100 µM (inactive); in [13], > 100 µM (inactive); in experiment [14], 38.3 µM (inactive). Also, the GI50 in experiment [15], in experiment [6], in experiment [7], in experiment [9], in experiment [10] and in experiment [12] was > 100 µM (inactive) each time.
On to `O=c1sc(-c2nc3ccccc3[nH]2)c(/N=C/c2ccccc2)n1-c1ccccc1`, for which the GI50 in experiment [1] is > 100 µM (inactive); in experiment [2], 57.4 µM (inactive); in experiment [3], 65.2 µM (inactive); in experiment [4] it was > 100 µM (inactive); in experiment [5], 97.7 µM (inactive); in [13], 75 µM (inactive). Further, the GI50 is 92.7 µM (inactive) in [14]; 15.4 µM (inactive) in experiment [15]; 35.6 µM (inactive) in experiment [7]; 91.4 µM (inactive) in [8]; 42.6 µM (inactive) in [9]; 53.7 µM (inactive) in experiment [10]. Besides, the GI50 in experiment [12] is 68.7 µM (inactive).
For the molecule `CC(=O)c1ccc(N2C(=O)C3c4[nH]c5ccccc5c4C4CCC(C(C)(C)C)CC4C3C2=O)cc1` (stereo unspecified), the GI50 is 22.5 µM (inactive) in experiment [1]; 19.6 µM (inactive) in experiment [2]; 28.3 µM (inactive) in [3]; 27.1 µM (inactive) in experiment [4]; 40.6 µM (inactive) in experiment [5]; 35.7 µM (inactive) in experiment [13]. Also, the GI50 is 16.7 µM (inactive) in experiment [14]; 18.7 µM (inactive) in experiment [15]; 22.4 µM (inactive) in [7]; 17.3 µM (inactive) in experiment [8]; 48.6 µM (inactive) in experiment [9]; 62.2 µM (inactive) in [10]. Besides, the GI50 in [11] is 26.7 µM (inactive); in [12], 19.5 µM (inactive).
In the case of `C=CCC(N(C)C(=O)[C@H](Cc1ccccc1)NC(=O)OCc1ccccc1)P(=O)(Oc1ccccc1)Oc1ccccc1` (stereo partly specified), the GI50 in [2] is 5.81 µM (inactive); in experiment [3], 6.5 µM (inactive); in experiment [4], 12.8 µM (inactive); in [5] it was > 100 µM (inactive); in [13], 9.2 µM (inactive); in experiment [14], > 100 µM (inactive). Moreover, the GI50 in [15] is > 100 µM (inactive); in [6], 6.1 µM (inactive); in experiment [7], > 100 µM (inactive); in experiment [8] it was > 100 µM (inactive); in [9], > 100 µM (inactive); in [10] it was > 100 µM (inactive). Also, the GI50 was 6.37 µM (inactive) in experiment [11] and > 100 µM (inactive) in experiment [12].
On to `Cc1nc(-n2nc(-c3ccccc3)cc2-c2ccccc2)sc1C(=O)/C=C/c1cccc([N+](=O)[O-])c1`, for which the GI50 in experiment [1] is 20.2 µM (inactive); in experiment [2], 17.5 µM (inactive); in [3], 23.3 µM (inactive); in experiment [4] it was 12.2 µM (inactive); in experiment [5], 24.1 µM (inactive); in [13] it was 8.75 µM (inactive). In addition, the GI50 is 19.2 µM (inactive) in experiment [14]; 25.8 µM (inactive) in [6]; 28.4 µM (inactive) in experiment [7]; 12.3 µM (inactive) in experiment [8]; 46.3 µM (inactive) in experiment [9]; 11.4 µM (inactive) in experiment [10]. In addition, the GI50 in experiment [12] is 15.2 µM (inactive).
As for `CN(C(=O)c1cccs1)C(=S)N1CCN(c2ccccn2)CC1`, the GI50 in experiment [2], in experiment [3], in [4], in experiment [5], in experiment [13] and in experiment [14] was > 100 µM (inactive) each time. In addition, the GI50 in experiment [15], in [6], in experiment [7], in experiment [8], in experiment [9] and in experiment [10] was > 100 µM (inactive) in each case. Also, the GI50 in experiment [12] is > 100 µM (inactive).

(Values after ChEMBL document CHEMBL1201862, “PubChem BioAssay data set” (2004).)
